What was measured:
clinical [1] = settings: human, in vivo
Method: (§1) In a randomized, double-blind, multicenter trial, once-weekly intravenous doses of 25-, 75-, or 250-mg of CCI-779 were administered to patients with advanced renal cancer that were either previously treated, or untreated and not appropriate candidates for high dose interlukin-2 therapy. Whole blood for CCI-779 and metabolite concentrations was drawn for population pharmacokinetic analysis, and Bayesian-predicted area under the concentration-time curves for parent drug (AUC), parent plus metabolite (AUCsum), and cumulative AUC and AUCsum were derived.
(§2) For CCI-779 clearance, factors for dose, attenuation of exposure with multiple-dose, and effect of body surface area were included.
(§3) The following examples were based on a randomized, double-blind, multicenter, outpatient phase 2 study of CCI-779 administered by 30 minute intravenous infusion (via an automatic dispensing pump) in patients with advanced RCC. Eligible patients were randomly assigned to treatment in a 1:1:1 ratio to receive 25 mg, 75 mg, or 250 mg of CCI-779 weekly until evidence of disease progression.
(§4) Full pharmacokinetic profiling was planned in a subset of patients, with remaining patients to provide sparse sampling.
(§5) The bioanalytical method for CCI-779 was performed using whole blood in a liquid chromatography/tandem mass spectrometry (LC/MS/MS) procedure with deuterated internal standard.
(§6) In order to characterize the pharmacokinetic profiles of patients providing sparse blood sampling, fully and sparsely sampled patient data were analyzed collectively using a population pharmacokinetic method and the NONMEM application (version 1.0, Revision 5.0 on Windows NT 4.0 computer with Pentium processor, NONMEM Project Group, University of California at San Francisco, Calif.). […] Data were therefore modeled separately and segregated by analyte into two separate data sets with dose, time/duration of administration, and demographic information. […] Construction of the NONMEM infile was performed using SAS (version 8.1) on a Sun Microsystems mainframe computer with Sun OS 5.8. […] In both cases, the model-derived value for AUC for a given patient and analyte were obtained from the quotient of CCI-779 Dose/Clearance (CL), in which CL was obtained from Bayesian estimation and the POSTHOC option of NONMEM.
(§7) During model building, an exponential error model was applied to the kinetic model.

clinical [2] = settings: human, in vivo, iv
Excerpt: The pharmacokinetics of CCI-779 is being studied in patients with cancer receiving CCI-779 either alone or in combination with other chemotherapeutic agents following intravenous administration. Intravenous dosage schedules previously investigated include a cyclical schedule (daily for 5 days every two weeks) and a once-weekly regimen. […] The following examples evaluated the safety, efficacy, and pharmacokinetic/pharmacodynamic relationship to clinical response of three doses of CCI-779, when administered to patients with advanced, refractory renal cell cancer (RCC).

[3] = human, in vivo
Method: as §1, §2, §3, §4, §5, §6, §7
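For CL in this document: population pharmacokinetic analysis in NONMEM of pooled full and sparse blood sampling from patients, exponential error on kinetic parameters, proportional residual error, bootstrap check over 1,000 resamples.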
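For DE on CL (θ6), parameter estimate in this document: population pharmacokinetic analysis in NONMEM of pooled full and sparse blood sampling from patients, exponential error on kinetic parameters, proportional residual error, bootstrap check over 1,000 resamples.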
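For DE on V3 (θ7), parameter estimate in this document: population pharmacokinetic analysis in NONMEM of pooled full and sparse blood sampling from patients, exponential error on kinetic parameters, proportional residual error, bootstrap check over 1,000 resamples.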
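For Dose effect on CL (θ7), bootstrap sample median in this document: population pharmacokinetic analysis in NONMEM of pooled full and sparse blood sampling from patients, exponential error on kinetic parameters, proportional residual error, bootstrap check over 1,000 resamples.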

## CO[C@H]1C[C@@H]2CC[C@@H](C)[C@@](O)(O2)C(=O)C(=O)N2CCCC[C@H]2C(=O)O[C@H]([C@H](C)C[C@@H]2CC[C@@H](O)[C@H](OC)C2)CC(=O)[C@H](C)/C=C(\C)[C@@H](O)[C@@H](OC)C(=O)[C@H](C)C[C@H](C)/C=C/C=C/C=C/1C [sirolimus]
Clinical [1]
  clearance: 33.2 mL/min
Clinical [2]
  half-life: 60 to 70 h
[3]
  DE on CL (θ6), parameter estimate: 0.422
  DE on V3 (θ7), parameter estimate: 0.302
  Dose effect on CL (θ7), bootstrap sample median: 0.412
  Dose effect on V3 (θ8), bootstrap sample median: 0.231
  HCT effect on V3 (θ8), parameter estimate: 0.719
  Hematocrit effect on V3 (θ9), bootstrap sample median: 0.768
  Inter-Patient Variability % on CL: 63.7%
  Inter-Patient Variability % on Ka: 34.6%
  Inter-Patient Variability % on V2: 164%
  Inter-Patient Variability % on V3: 22.8%
  Intersubject variability on CL (ω^21), bootstrap sample median: 0.545
  Intersubject variability on CL (ω^21), final model parameter estimate: 0.406
  Intersubject variability on V2 (ω^22), bootstrap sample median: 1.418
  Intersubject variability on V2 (ω^22), final model parameter estimate: 2.72
  Intersubject variability on V3 (ω^23), final model parameter estimate: 0.052
  Intersubject variability on ka (ω^24), bootstrap sample median: 0.316
  Intersubject variability on ka (ω^24), final model parameter estimate: 0.120
  Ka (θ5), parameter estimate: 0.087 h⁻¹
  Proportional error (ε^2), bootstrap sample median: 0.212
  Proportional error (ε^2), final model parameter estimate: 0.0543
  Q (θ3), bootstrap sample median: 27.5 L/h
  V2 (θ2), bootstrap sample median: 8.24 L
  V3 (θ4), bootstrap sample median: 11.6 L
  V3 (θ4), parameter estimate: 12.9 L
  ka (θ5), bootstrap sample median: 0.0616 h⁻¹
[3]; iv
  Q (θ3), parameter estimate: 44.1 L/h
  V2 (θ2), parameter estimate: 10.4 L
[3]; iv, 250 mg
  CL (θ1), parameter estimate: 2.05 L/h

Reference: patent publication US7643943B2, “Methods for monitoring drug activities in vivo” (Wyeth LLC, priority 2003, dated 2010)
